The values that follow come from PMC12040169 (PLOS Biology, 2025).

SMILES strings stand for the structures.

The data set is described as follows: in vitro. The conditions noted are these: human, hela cells, % viability.

A word on the viability: it is a read-out of living cells in per cent, often relative to untreated cells. Turning to `O=C(O)C1CCCCC1c1nnc(S)[nH]1` (stereo not shown) [CBK266490], the viability at 28.5 h, 10 µM worked out at 96.4%.

Consider `COc1ccc(CNS(=O)(=O)c2cc(OCC(N)=O)c(C)cc2Cl)cc1` [CBK266495], for which the viability at 28.5 h, 10 µM was found to be 110%.

Take `CN(C)S(=O)(=O)N1CCN(c2ccc([N+](=O)[O-])c(NCCc3ccccc3)c2)CC1` [CBK266498]: the viability at 28.5 h, 10 µM is 102%.

As for `CCOC(=O)c1c(NC(=O)CSc2ccc(F)cc2)sc2c1CCCC2` [CBK266506], the viability at 28.5 h, 10 µM was determined as 95.9%.

Turning to `Cc1cc(C)nc(N/C(=N/C(=O)CCN2C(=O)c3ccccc3C2=O)Nc2cccc(Cl)c2)n1` [CBK266507], the viability at 28.5 h, 10 µM was 97%.

Turning to `CC(C)(C)c1cc(CN)c(C(=O)O)o1` [CBK266510C], the viability at 28.5 h, 10 µM was 94.3%.

In the case of `Cc1nc2ccc(NC(=O)N3CCC(c4ccccc4)C3)cc2s1` (stereo not shown) [CBK266512], the viability at 28.5 h, 10 µM turned out to be 98.8%.

For `Cc1ccc(S(=O)(=O)NC(C)C(=O)NCc2ccco2)cc1` (stereo not shown) [CBK266514], the viability at 28.5 h, 10 µM was 109%.

Consider `Cc1c(C(=O)C2=C(O)C(=O)N(CCCN(C)C)C2c2ccccn2)cnn1-c1ccccc1` (stereo not shown) [CBK266516], for which the viability at 28.5 h, 10 µM was determined as 100%.

Regarding `Cc1nnc(SCC(=O)NC(C)(C)C)n1NCc1cccc(Br)c1` [CBK266517], the viability at 28.5 h, 10 µM is 101%.

For `COc1cc(C)c(Cl)c(C)c1S(=O)(=O)NCc1ccc2c(c1)OCO2` [CBK266518], the viability at 28.5 h, 10 µM was determined as 96%.

In the case of `COc1ccc(S(=O)(=O)NCCCN2CCOCC2)c(C)c1C` [CBK266519], the viability at 28.5 h, 10 µM turned out to be 110%.

Turning to `Cc1nnc(SCC(=O)Nc2nsc(-c3ccc(Cl)cc3)n2)s1` [CBK266525], the viability at 28.5 h, 10 µM was found to be 91.5%.

Take `CCS(=O)(=O)n1nc(-c2ccc(OC)cc2)nc1SC` [CBK266526]: the viability at 28.5 h, 10 µM worked out at 103%.

As to `O=C(/C=C/c1cn(-c2ccccc2)nc1-c1cc2ccccc2oc1=O)NCc1ccccc1` [CBK266530], the viability at 28.5 h, 10 µM amounted to 100%.

Turning to `O=C(CSc1ccc(Cl)cc1)Nc1cc(C(=O)O)cc(C(=O)O)c1` [CBK266531], the viability at 28.5 h, 10 µM amounted to 98.8%.

As for `COc1ccccc1NC(=O)c1ccc(-c2nnc(-c3ccccc3)o2)cc1` [CBK266533], the viability at 28.5 h, 10 µM was determined as 107%.

Consider `Cc1ccc2nc(NCCC(=O)O)nc(-c3ccccc3)c2c1` [CBK266537], for which the viability at 28.5 h, 10 µM was determined as 97.4%.

For the compound `COc1ccc(OCc2nn(-c3nc4ccccc4s3)c(N)c2-c2ccccc2)cc1` [CBK266539], the viability at 28.5 h, 10 µM was found to be 98.5%.

As for `O=C(Nc1ccc(O)cc1C(=O)O)c1ccc2c(c1)C(=O)N(Cc1ccccc1)C2=O` [CBK266540], the viability at 28.5 h, 10 µM came to 88.7%.

As for `CC(Oc1ccc(Cl)cc1Cl)C(=O)Nc1ccc(OCC(=O)O)cc1` (stereo not shown) [CBK266542], the viability at 28.5 h, 10 µM came to 98.8%.

On to `Cc1c(C(=O)C2=C(O)C(=O)N(Cc3cccnc3)C2c2cccnc2)cnn1-c1ccccc1` (stereo not shown) [CBK266543], for which the viability at 28.5 h, 10 µM was determined as 105%.

As for `COc1cc(NC(=O)c2ccc3c(c2)C(=O)N(Cc2ccccc2)C3=O)c(C(=O)O)cc1OC` [CBK266544], the viability at 28.5 h, 10 µM is 106%.

For the compound `CC(=O)Nc1ccc(S(=O)(=O)N2CCN(S(=O)(=O)N(C)C)CC2)cc1` [CBK266545], the viability at 28.5 h, 10 µM is 95.9%.

As for `COc1ccc(NC(=O)CCCSc2nc(N)c3c(C)c(C)sc3n2)cc1` [CBK266547], the viability at 28.5 h, 10 µM turned out to be 105%.

For `CCOc1ccccc1Nc1nc(N)nc(CN2CCCCC2C)n1` (stereo not shown) [CBK266548], the viability at 28.5 h, 10 µM came out at 105%.

In the case of `Cc1ccc(S(=O)(=O)N(C)C)cc1NC(=O)C12CCC(C)(C(=O)C1)C2(C)C` (stereo not shown) [CBK266551], the viability at 28.5 h, 10 µM stood at 108%.

`CCOC(=O)c1cc(NC(=O)CSc2nc3ccccc3[nH]2)ccc1Cl` [CBK266557]: the viability at 28.5 h, 10 µM is 99.8%.

On to `CC1(C)CC(NC(=O)C23CCC(C)(c4nc5ccccc5nc42)C3(C)C)CC(C)(C)N1` (stereo not shown) [CBK266559], for which the viability at 28.5 h, 10 µM was determined as 99.3%.

Regarding `Cc1cc(Cl)c(S(=O)(=O)Nc2ccc(C#N)cc2)cc1OCC(N)=O` [CBK266560], the viability at 28.5 h, 10 µM came out at 112%.

For `Cc1cc(C)nc(N(C#N)CC(=O)c2ccc(Br)cc2)n1` [CBK266562], the viability at 28.5 h, 10 µM came to 91.3%.

Take `Cn1c(CSCc2ccccc2)nnc1SCC(=O)c1ccc(Br)cc1` [CBK266565]: the viability at 28.5 h, 10 µM was 94.9%.

Consider `O=C(CSC1c2ccccc2Oc2ccccc21)Nc1cccc(C(=O)O)c1` [CBK266566], for which the viability at 28.5 h, 10 µM was determined as 97.9%.

Consider `CCOC(=O)c1c(NC(=O)CSc2n[nH]c(N)n2)sc2c1CCCCC2` [CBK266569], for which the viability at 28.5 h, 10 µM is 101%.

`O=c1c(-c2ccco2)[n+]([O-])c2ccccc2n1OCc1ccccn1` [CBK266570]: the viability at 28.5 h, 10 µM was found to be 91.8%.

Turning to `NS(=O)(=O)c1ccc(NC(=O)c2ccc(NC(=O)C3COc4ccccc4O3)cc2)cc1` (stereo not shown) [CBK266573], the viability at 28.5 h, 10 µM came to 101%.

In the case of `O=C1c2ccc(-c3ccc4c(c3)C(=O)N(Cc3ccco3)C4=O)cc2C(=O)N1Cc1ccco1` [CBK266578], the viability at 28.5 h, 10 µM was 93.3%.

Take `O=C(NCCOc1ccccc1Cc1ccccc1)c1cncc(Br)c1` [CBK266581]: the viability at 28.5 h, 10 µM amounted to 103%.

In the case of `Cc1cc(Cl)c(S(=O)(=O)Nc2ccc(Oc3ccccc3)cc2)cc1OCC(N)=O` [CBK266583], the viability at 28.5 h, 10 µM amounted to 99.8%.

Regarding `CCOc1ccc(C(=O)C2=C(O)C(=O)N(CCN(C)C)C2c2cccnc2)cc1Cl` (stereo not shown) [CBK266585], the viability at 28.5 h, 10 µM stood at 96.5%.

In the case of `Oc1ccc(NCc2ccc(OCc3cccs3)cc2)cc1` [CBK266586], the viability at 28.5 h, 10 µM stood at 89%.

For `O=C(O)c1ccc(NC(=O)c2cn(-c3ccccc3)nc2-c2cc3ccccc3o2)cc1` [CBK266587C], the viability at 28.5 h, 10 µM amounted to 106%.

For `CCCN1CCN(c2ncnc3scc(C4COc5ccccc5O4)c23)CC1` (stereo not shown) [CBK266590], the viability at 28.5 h, 10 µM was 102%.

Regarding `O=c1c2cn[nH]c2nc(SCc2ccc3c(c2)OCCO3)n1-c1ccccc1` [CBK266593], the viability at 28.5 h, 10 µM stood at 91.8%.

For the compound `COc1cccc(CNCCO)c1OCc1ccccc1F` [CBK266594C], the viability at 28.5 h, 10 µM was found to be 104%.

`COc1cc(CNc2ccc3[nH]c(=O)[nH]c3c2)cc(Br)c1OCC(=O)NC(C)(C)C` [CBK266596]: the viability at 28.5 h, 10 µM is 57%.

As to `NC(=O)C1(N2CCCCC2)CCN(C2CC(=O)N(Cc3ccc(N4CCCC4=O)cc3)C2=O)CC1` (stereo not shown) [CBK266598], the viability at 28.5 h, 10 µM is 102%.

As to `COc1cccc2cc(C(=O)C3=C(O)C(=O)N(CCN4CCOCC4)C3c3cccc(Cl)c3)oc12` (stereo not shown) [CBK266599], the viability at 28.5 h, 10 µM was determined as 100%.

With `Cc1sc2nc(SCC(=O)Nc3ccc(S(N)(=O)=O)cc3)n(-c3ccccc3)c(=O)c2c1C` [CBK266600], the viability at 28.5 h, 10 µM was 108%.

Take `CCOC(=O)CSc1nc2ccc(I)cc2c(=O)n1Cc1ccccc1` [CBK266602]: the viability at 28.5 h, 10 µM amounted to 107%.

`Cc1ccc(OCc2nnc(SCC(=O)O)n2N)cc1` [CBK266603]: the viability at 28.5 h, 10 µM was determined as 95.8%.

With `O=C(C1=C(O)C(=O)N(CCCN2CCOCC2)C1c1ccccn1)c1ccccc1` (stereo not shown) [CBK266604], the viability at 28.5 h, 10 µM came to 93.4%.

In the case of `OCCNc1nc(Nc2ccc(O)cc2)nc2ccccc12` [CBK266606C], the viability at 28.5 h, 10 µM is 97.3%.

Regarding `N#Cc1c(O)nc(SCC(=O)Nc2ccc(Oc3ccccc3)cc2)nc1-c1ccccc1` [CBK266607], the viability at 28.5 h, 10 µM came out at 118%.

Turning to `C=CCn1c(COc2cccc3ccc(C)nc23)nnc1SC` [CBK266608], the viability at 28.5 h, 10 µM is 94.2%.
